Measured values from patent publication US20240270741A1 (Cogent Biosciences, Inc., priority 2023, published 2024).

These compounds were tested against FGFR2 (Homo sapiens, UniProt P21802) (assay: FGFR wild type enzyme assay (HTRF KinEASE-TK), FGFR2). Conditions: Enz FGFR2 (nM), FGFR2 wild type enzyme assay.
FGFR2, sequence (P21802 399-821 limits assumed): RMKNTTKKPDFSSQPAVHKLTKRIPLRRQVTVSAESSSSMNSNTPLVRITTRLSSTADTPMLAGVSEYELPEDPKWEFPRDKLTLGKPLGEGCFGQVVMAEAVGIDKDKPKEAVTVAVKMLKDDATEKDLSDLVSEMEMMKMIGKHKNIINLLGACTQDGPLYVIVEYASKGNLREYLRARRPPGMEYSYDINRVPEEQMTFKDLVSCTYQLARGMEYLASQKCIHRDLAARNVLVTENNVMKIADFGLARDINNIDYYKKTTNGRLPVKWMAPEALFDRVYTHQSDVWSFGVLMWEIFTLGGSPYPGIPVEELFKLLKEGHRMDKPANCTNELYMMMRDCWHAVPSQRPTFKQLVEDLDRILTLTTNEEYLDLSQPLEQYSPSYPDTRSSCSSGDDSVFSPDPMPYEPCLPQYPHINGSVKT

| SMILES | IC50 [nM] |
| --- | --- |
| N#Cc1ccccc1Sc1cc(-c2cnn([C@H]3CCC(=O)NC3)c2)cn2ncc(C#N)c12 [Example 623, (S)-4-((2-cyanophenyl)thio)-6-(1-(6-oxopiperidin-3-yl)-1H-pyrazol-4-yl)pyrazolo[1,5-a]pyridine-3-carbonitrile] | 1 |
| N#Cc1ccccc1Sc1cc(-c2cnn(C3CCC3)c2)cn2ncc(C#N)c12 [Example 624, 4-((2-cyanophenyl)thio)-6-(1-cyclobutyl-1H-pyrazol-4-yl)pyrazolo[1,5-a]pyridine-3-carbonitrile] | 1 |
| N#Cc1ccccc1Sc1cc(-c2cnn([C@H]3CCCNC3)c2F)cn2ncc(C#N)c12 [Example 625, (S)-4-((2-cyanophenyl)thio)-6-(5-fluoro-1-(piperidin-3-yl)-1H-pyrazol-4-yl)pyrazolo[1,5-a]pyridine-3-carbonitrile] | 1 |
| N#Cc1cc(F)ccc1Sc1cc(-c2ccc(N3CC[C@H](O)C3)nc2)cn2ncc(C#N)c12 [Example 626, (S)-4-((2-cyano-4-fluorophenyl)thio)-6-(6-(3-hydroxypyrrolidin-1-yl)pyridin-3-yl)pyrazolo[1,5-a]pyridine-3-carbonitrile] | 1 |
| N#Cc1cc(F)ccc1Sc1cc(-c2ccc(N3CC[C@@H](O)C3)nc2)cn2ncc(C#N)c12 [Example 627, (R)-4-((2-cyano-4-fluorophenyl)thio)-6-(6-(3-hydroxypyrrolidin-1-yl)pyridin-3-yl)pyrazolo[1,5-a]pyridine-3-carbonitrile] | 2 |
| N#Cc1cc(F)ccc1Sc1cc(-c2ccc(N3C[C@@H](O)[C@@H](O)C3)nc2)cn2ncc(C#N)c12 [Example 628, 4-((2-cyano-4-fluorophenyl)thio)-6-(6-((3R,4S)-3,4-dihydroxypyrrolidin-1-yl)pyridin-3-yl)pyrazolo[1,5-a]pyridine-3-carbonitrile] | 1 |
| N#Cc1cc(F)ccc1Sc1cc(-c2ccc(N3C[C@@H](O)[C@H](O)C3)nc2)cn2ncc(C#N)c12 [Example 629, 4-((2-cyano-4-fluorophenyl)thio)-6-(6-((3R,4R)-3,4-dihydroxypyrrolidin-1-yl)pyridin-3-yl)pyrazolo[1,5-a]pyridine-3-carbonitrile] | 1.6 |
| CC(=O)N1CCC[C@H](n2cc(-c3cc(Sc4nc(C)c(F)cc4F)c4c(C#N)cnn4c3)cn2)C1 [Example 630, (S)-6-(1-(1-acetylpiperidin-3-yl)-1H-pyrazol-4-yl)-4-((3,5-difluoro-6-methylpyridin-2-yl)thio)pyrazolo[1,5-a]pyridine-3-carbonitrile] | 1 |
| Cc1nc(Sc2cc(-c3cnn([C@H]4CCCNC4)c3)cn3ncc(C#N)c23)c(F)cc1F [Example 631, (S)-4-((3,5-difluoro-6-methylpyridin-2-yl)thio)-6-(1-(piperidin-3-yl)-1H-pyrazol-4-yl)pyrazolo[1,5-a]pyridine-3-carbonitrile] | 1 |
| Cc1c(-c2cc(Sc3ccc(F)cc3C#N)c3c(C#N)cnn3c2)cnn1[C@@H]1CCCC[C@H]1O [Example 632, 4-((2-cyano-4-fluorophenyl)thio)-6-(1-((1R,2R)-2-hydroxycyclohexyl)-5-methyl-1H-pyrazol-4-yl)pyrazolo[1,5-a]pyridine-3-carbonitrile] | 32 |
| Cc1c(-c2cc(Sc3ccc(F)cc3C#N)c3c(C#N)cnn3c2)cnn1[C@H]1CCCC[C@@H]1O [Example 633, 4-((2-cyano-4-fluorophenyl)thio)-6-(1-((2S,2S)-2-hydroxycyclohexyl)-5-methyl-1H-pyrazol-4-yl)pyrazolo[1,5-a]pyridine-3-carbonitrile] | 1 |
| Cc1c(-c2cc(Sc3ccc(F)cc3C#N)c3c(C#N)cnn3c2)cnn1[C@H]1CC[C@H](OC(=O)[C@H](C)N)CC1 [Example 634, (1r,4S)-4-(4-(3-cyano-4-((2-cyano-4 fluorophenyl)thio)pyrazolo [1,5-a]pyridin-6-yl)-5-methyl-1H-pyrazol-1-yl)cyclohexyl L-alaninate] | 1 |
| Cc1c(-c2cc(Sc3ccc(F)cc3C#N)c3c(C#N)cnn3c2)cnn1[C@H]1CC[C@H](OC(=O)[C@H](N)C(C)C)CC1 [Example 635, (1r,4R)-4-(4-(3-cyano-4-((2-cyano-4-fluorophenyl)thio)pyrazolo [1,5-a]pyridin-6-yl)-5-methyl-1H-pyrazol-1-yl)cyclohexyl D-valinate] | 1 |
| Cc1c(-c2cc(Sc3ccc(F)cc3C#N)c3c(C#N)cnn3c2)cnn1[C@H]1CC[C@H](OC(=O)CN)CC1 [Example 636, (1r,4r)-4-(4-(3-cyano-4-((2-cyano-4-fluorophenyl)thio)pyrazolo [1,5-a]pyridin-6-yl)-5-methyl-1H-pyrazol-1-yl)cyclohexyl glycinate] | 1 |
| N#Cc1ccccc1Sc1cc(-c2c[nH]nn2)cn2ncc(C#N)c12 [Example 637, 4-((2-cyanophenyl)thio)-6-(1H-1,2,3-triazol-4-yl)pyrazolo[1,5-a]pyridine-3-carbonitrile] | 12 |
| Cn1cc(-c2cc(Sc3ccccc3C#N)c3c(C#N)cnn3c2)ccc1=O [Example 638, 4-((2-cyanophenyl)thio)-6-(1-methyl-6-oxo-1,6-dihydropyridin-3-yl)pyrazolo[1,5-a]pyridine-3-carbonitrile] | 18 |
| CN(CCO)c1ccc(-c2cc(Sc3ccc(F)cc3C#N)c3c(C#N)cnn3c2)cn1 [Example 639, 4-((2-cyano-4-fluorophenyl)thio)-6-(6-((2-hydroxyethyl)(methyl)ami-no)pyridin-3-yl)pyrazolo[1,5-a]pyridine-3-carbonitrile] | 1.5 |

| SMILES | IC50 [nM] |
| --- | --- |
| N#Cc1cc(F)ccc1Sc1cc(-c2ccc(NCCO)nc2)cn2ncc(C#N)c12 [Example 640, 4-((2-cyano-4-fluorophenyl)thio)-6-(6-((2-hydroxyethyl)amino)pyridin-3-yl)pyrazolo[1,5-a]pyridine-3-carbonitrile] | 2.5 |
| [2H]C([2H])([2H])n1cc(-c2cc(Sc3ccccc3C#N)c3c(C#N)cnn3c2)cn1 [Example 641, 4-((2-cyanophenyl)thio)-6-(1-(methyl-d3)-1H-pyrazol-4-yl)pyrazolo[1,5-a]pyridine-3-carbonitrile] | 1 |
| Cn1cc(-c2cc(Sc3ccccc3C#N)c3c(C#N)cnn3c2)c(N)n1 [Example 642, 6-(3-amino-1-methyl-1H-pyrazol-4-yl)-4-((2-cyanophenyl)thio)pyrazolo [1,5-a]pyridine-3-carbonitrile] | 2 |
| Cc1c(-c2cc(Sc3ccccc3C#N)c3c(C#N)cnn3c2)cnn1[C@@H]1CCNC(=O)C1 [Example 643] | 3 |
| Cc1c(-c2cc(Sc3ccccc3C#N)c3c(C#N)cnn3c2)cnn1[C@H]1CCNC(=O)C1 [Example 644] | 1.6 |
| CC(=O)NC1CCN(c2ccc(-c3cc(Sc4ccc(F)cc4C#N)c4c(C#N)cnn4c3)cn2)C1 (stereo not shown) [Example 645] | 1.6 |
| N#Cc1cc(F)ccc1Sc1cc(-c2ccc(N3CCOC(CO)C3)nc2)cn2ncc(C#N)c12 (stereo not shown) [Example 646, 4-((2-cyano-4-fluorophenyl)thio)-6-(6-(2-(hydroxymethyl)morpholi-no)pyridin-3-yl)pyrazolo[1,5-a]pyridine-3-carbonitrile] | 1 |
| CN1C[C@@H](n2cc(-c3cc(Sc4ccccc4C#N)c4c(C#N)cnn4c3)cn2)CCC1=O [Example 647, (S)-4-((2-cyanophenyl)thio)-6-(1-(1-methyl-6-oxopiperidin-3-yl)-1H-pyrazol-4-yl)pyrazolo[1,5-a]pyridine-3-carbonitrile] | 1 |
| N#Cc1ccccc1Sc1cc(-c2ccc(N3CCO[C@@H](CO)C3)nc2)cn2ncc(C#N)c12 [Example 648, (R)-4-((2-cyanophenyl)thio)-6-(6-(2-(hydroxymethyl)morpholi-no)pyridin-3-yl)pyrazolo[1,5-a]pyridine-3-carbonitrile] | 0.6 |
| N#Cc1ccccc1Sc1cc(-c2ccc(N3CCO[C@H](CO)C3)nc2)cn2ncc(C#N)c12 [Example 649, (S)-4-((2-cyanophenyl)thio)-6-(6-(2-(hydroxymethyl)morpholi-no)pyridin-3-yl)pyrazolo[1,5-a]pryidine-3-carbonitrile] | 0.5 |
| N#Cc1ccccc1Sc1cc(-c2cnn(CC[C@@H](O)CO)c2)cn2ncc(C#N)c12 [Example 650, (R)-4-((2-cyanophenyl)thio)-6-(1-(3,4-dihydroxybutyl)-1H-pyrazol-4-yl)pyrazolo[1,5-a]pyridine-3-carbonitrile] | 1 |
| N#Cc1ccccc1Sc1cc(-c2cnn(CC(=O)N3CC[C@H](O)C3)c2)cn2ncc(C#N)c12 [Example 651, (S)-4-((2-cyanophenyl)thio)-6-(1-(2-(3-hydroxypyrrolidin-1-yl)-2-oxoethyl)-1H-pyrazol-4-yl)pyrazolo[1,5-a]pyridine-3-carbonitrile] | 1 |
| N#Cc1ccccc1Sc1cc(-c2cnn(CC(=O)N3CC[C@@H](O)C3)c2)cn2ncc(C#N)c12 [Example 652, (R)-4-((2-cyanophenyl)thio)-6-(1-(2-(3-hydroxypyrrolidin-1-yl)-2-oxoethyl)-1H-pyrazol-4-yl)pyrazolo[1,5-a]pyridine-3-carbonitrile] | 1 |
| CC(C)(O)CCn1cc(-c2cc(Sc3ccccc3C#N)c3c(C#N)cnn3c2)cn1 [Example 653, 4-((2-cyanophenyl)thio)-6-(1-(3-hydroxy-3-methylbutyl)-1H-pyrazol-4-yl)pyrazolo[1,5-a]pyridine-3-carbonitrile] | 1 |
| N#Cc1cnn2cc(-c3ccc(N4C[C@H](O)[C@@H](O)C4)nc3)cc(Sc3ncccc3F)c12 [Example 654, 6-(6-((3S,4S)-3,4-dihydroxypyrrolidin-1-yl)pyridin-3-yl)-4-((3-fluoropyridin-2-yl)thio)pyrazolo[1,5-a]pyridine-3-carbonitrile] | 3 |
| N#Cc1cnn2cc(-c3ccc(N4C[C@@H](O)[C@H](O)C4)nc3)cc(Sc3ncccc3F)c12 [Example 655, 6-(6-((3R,4R)-3,4-dihydroxypyrrolidin-1-yl)pyridin-3-yl)-4-((3-fluoropyridin-2-yl)thio)pyrazolo[1,5-a]pyridine-3-carbonitrile] | 3 |
| CN1CCN(c2ccc(-c3cc(Sc4ncccc4F)c4c(C#N)cnn4c3)cn2)CC1=O [Example 656, 4-((3-fluoropyridin-2-yl)thio)-6-(6-(4-methyl-3-oxopiperazin-1-yl)pyridin-3-yl)pyrazolo[1,5-a]pyridine-3-carbonitrile] | 2 |
